How the values were obtained:
[1] = system: human-derived fibroblast(ATCC, Hs68); test: Cell toxicity and activity, MTT; assay type: cell-based; conditions: for Cell activity: at LD50
Description: Test cells of human-derived fibroblast(ATCC, Hs68) were cultivated in DMEM medium added by 10% FBS at 37° C. in the condition of 5%CO2, 100% humidity. 1×10^5 cells/ml of cells were seeded in 96 plate and incubated at 37° C. for 24 hr. Samples sterilized by 0.2 µm filter were added according to the fixed concentration and further incubated at 37° C. for 24 hr. Then, MTT regent was added and incubated at 37° C. for 4 hr, then the culture solution was removed. After, 1N NaOH isopropane solution was added and stirred for 20 min, the absorbance at 565 nm was measured. Then, the cell apoptosis concentration was determined by comparing the untreated cell (survival ratio: 100%).
Cell activity at LD50 was 20%, which was satisfactory level.

[2] = Anti-oxidant effect, activated oxygen removal by NBT method; assay type: biochemical; conditions: 0.1%(wt/wt) sample solution; NBT absorbance at 560 nm; suppression ratio
Description: And whitening activity and anti-oxidant activity were measured by determining tyrosinase inhibition effect and using NBT method. 0.1% vitamin C, 0.1% vitamin E, kojic acid and albutin were used as sample. To determine anti-oxidant effect, activated oxygen produced from xanthine and xanthine oxidase were measured using NBT method and activated oxygen removal effect of the tested materials was determined. Activated oxygen was produced by xanthine and xanthine oxidase. The activated oxygen was determined by measuring the blue color produced from the reaction of the activated oxygen and Nitroblue tetrasolium (NBT) at 560 nm of wavelength. 6) Xanthines oxidase solution: xanthine oxidase(Boehringer) was diluted about 100 times so that its blank test absorbance within the range of 0.2-0.23. In other word, the purified water was diluted so that the absorbance change be A560=0.3/20 min. (1)1,2,3,4 and 5 are introduced into vial bottle and 0.1 ml of sample solution is added, which are maintained at 5° C. for 10 min. (2) It is added by 6 and stirred immediately, followed by 20 min of culture at 25° C. (3) After 7 is added, the reaction is stopped. Then, absorbance (St) at 560 nm is measured. (4) Blank test is carried out in the same way except distilled water is used instead of sample solution and absorbance (Bt) is measured. 5) Blank test for sample is carried out in the same way except distilled water is used instead of 6 and absorbance (Bo) is measured. The effect is calculated in the following way. Suppression ratio (%)=[1−(St−So)/(Bt−Bo)×100

tyrosinase = test: Tyrosinase inhibition effect (whitening activity); assay type: biochemical; conditions: 0.1%(wt/wt) sample solution; tyrosine 0.2 mg/ml, tyrosinase 680 units/ml, 37° C.
Description: And whitening activity and anti-oxidant activity were measured by determining tyrosinase inhibition effect and using NBT method. 0.1% vitamin C, 0.1% vitamin E, kojic acid and albutin were used as sample. […] A solution for blank test was tyrosine 1 ml+phosphoric acid buffer 1 ml+distilled water 1 ml. The procedure of the test is as follows. [table] 1) A,B and C are mixed and maintained at 37° C. for 30 min. 2) D is added and maintained for just 30 min. 3) After 10 min±10 sec, they are took out and the reaction ends in a refrigerating condition by ice. 4) when comparing the absorbance the comparative samples, the absorbencies of comparative group are tested and then those of blank test group are test(at […]). Tyrosinase activity inhibition effect(%) us calculated in the following way and the result is shown as Table 2. Tyrosinase activity inhibition effect (%): [1−(E−B/C)]×100 (B: blank test group, C: control group, E: test group)

[3] = system: collagen in the skin of hairless mice; test: Collagen formation effect, skin tissue test for collagen proliferation promoting effect; assay type: in vivo; conditions: 0.1%(wt/wt) 1,3-BG solution applied to body of hairless mice
Description: To confirm the collagen formation effect of the synthesized 3,9-diferulylcoumestrol, 10 female hairless mice of 8week age were prepared. From the 2 mice, skin was taken out and standard dye samples were prepared using the side and middle part of the skin for investigation the collagen proliferation level. The other 8 mice were divided into two for the applied group and the control group.
In the same test condition, the whole body except head and belly of the applied group and the control group and were applied by 3,9-diferulycoumestrol 0.1%(wt/wt) 1,3-BG solution and 1,3-BG solution, for 15 days and 30 days.
From the applied group and the control group respectively, 2 mice were selected and their skins were cut out, then dyed samples were obtained from the side and middle part of the skin. After 30 days, skin dyed samples were obtained in the same way. For each of the obtained 10 dyed skin samples of the control group and the applied group, collagen proliferation promoting effect were compared on the basis of the skin condition of &week age. […] From the result, it was experimentally confirmed that 3,9diferulylcoumestrol is excellent in collagen synthesis and collagen proliferation promotion(FIG. 2)

[4] = 24 hr, diluted in 1,3-butylenglycol

| Compound | Cell activity [1] | Anti-oxidant effect (%) [2] | Tyrosinase inhibition effect (%) (tyrosinase) | further results |
| --- | --- | --- | --- | --- |
| O=c1oc2cc(O)ccc2c2oc3cc(O)ccc3c12 [Coumestrol] | 20% | 28% | – | Evaluation (LD50) [1]: Safe; Evaluation (cell activity) [1]: excellent; LD50 % concentration ([1]; 24 hr): 0.0048%; LD50 mole concentration(mM) ([1]; 24 hr): 0.078 mM |
| COc1cc(C=CC(=O)Oc2ccc3c(c2)oc(=O)c2c4ccc(OC(=O)C=Cc5ccc(O)c(OC)c5)cc4oc32)ccc1O [3,9-diferulylcoumestrol] | 20% | 42% | 76% | collagen synthesis and proliferation in skin ([3]; after 2 weeks (15 days), vs control groups): collagen synthesis and proliferation were found; collagen proliferation in corium layer and tissue density ([3]; after 30 days): collagen proliferation in corium layer was increased and the tissue density was raised; concentration range in which cell apoptosis did not show [1, 4]: ≤ 78 µM; concentration range in which cell apoptosis did not show (%) [1, 4]: ≤ 0.0048% |
| O=c1cc(CO)occ1O [Kojic acid] | – | – | 91% | – |
| OC[C@H]1O[C@@H](Oc2ccc(O)cc2)[C@H](O)[C@@H](O)[C@@H]1O [Albutin] | – | – | 40% | – |
| O=C1O[C@H]([C@@H](O)CO)C(O)=C1O [Ascorbic acid] | – | – | 30% | – |
| Tocopherol | – | 43% | – | – |

— patent publication US6503941B2, “Ferulic ester derivative, 3,9-diferulylcoumestrol and cosmetic product containing same” (Hanbul Cosmetics Co., Ltd., priority 2000, dated 2003)
